Data published in patent US20100311714A1, “1H-IMIDAZO[4,5-c]QUINOLINONE COMPOUNDS” (priority 2009, published 2010).
In brackets after ≈: the same amount, converted by molar mass. Read-outs that look alike come from different tables or passages of the source.

Experiments:
[1] = High-throughput equilibrium solubility at pH 6.8; assay type: physicochemical; conditions: pH 6.8, aqueous buffer, thermodynamic from solid; read-out: HT-Eq Sol/pH 6.8
Outline: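 Solubility was measured at pH 6.8 following the cited Zhou et al. (2007) procedure.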

[2] = target: T1, PI3K beta (Homo sapiens, UniProt P42338); assay: PI3K beta kinase assay (Kinase-Glo luminescence); assay type: biochemical
T1 construct: for the full-length p110-b subunit are generated and fused by overlapping PCR; His tag (C); made in house; host or cells: baculovirus BV949; Tn5 (Trichoplusia ni) or TiniPro insect cells
Outline: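 PI3Kβ construct BV949 (p85 iSH2–p110β full-length, C-His), 25 nM, reacted with 1 μM ATP and 10 μg/mL phosphatidylinositol in Tris pH 7.5, MgCl2, NaCl, CHAPS, DTT buffer, 60 min at room temperature. Remaining ATP by Kinase-Glo luminescence; IC50 from 4-parameter logistic fit of 8 concentrations.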

T1 sequence (P42338 with tags, fused parts or gaps limits assumed): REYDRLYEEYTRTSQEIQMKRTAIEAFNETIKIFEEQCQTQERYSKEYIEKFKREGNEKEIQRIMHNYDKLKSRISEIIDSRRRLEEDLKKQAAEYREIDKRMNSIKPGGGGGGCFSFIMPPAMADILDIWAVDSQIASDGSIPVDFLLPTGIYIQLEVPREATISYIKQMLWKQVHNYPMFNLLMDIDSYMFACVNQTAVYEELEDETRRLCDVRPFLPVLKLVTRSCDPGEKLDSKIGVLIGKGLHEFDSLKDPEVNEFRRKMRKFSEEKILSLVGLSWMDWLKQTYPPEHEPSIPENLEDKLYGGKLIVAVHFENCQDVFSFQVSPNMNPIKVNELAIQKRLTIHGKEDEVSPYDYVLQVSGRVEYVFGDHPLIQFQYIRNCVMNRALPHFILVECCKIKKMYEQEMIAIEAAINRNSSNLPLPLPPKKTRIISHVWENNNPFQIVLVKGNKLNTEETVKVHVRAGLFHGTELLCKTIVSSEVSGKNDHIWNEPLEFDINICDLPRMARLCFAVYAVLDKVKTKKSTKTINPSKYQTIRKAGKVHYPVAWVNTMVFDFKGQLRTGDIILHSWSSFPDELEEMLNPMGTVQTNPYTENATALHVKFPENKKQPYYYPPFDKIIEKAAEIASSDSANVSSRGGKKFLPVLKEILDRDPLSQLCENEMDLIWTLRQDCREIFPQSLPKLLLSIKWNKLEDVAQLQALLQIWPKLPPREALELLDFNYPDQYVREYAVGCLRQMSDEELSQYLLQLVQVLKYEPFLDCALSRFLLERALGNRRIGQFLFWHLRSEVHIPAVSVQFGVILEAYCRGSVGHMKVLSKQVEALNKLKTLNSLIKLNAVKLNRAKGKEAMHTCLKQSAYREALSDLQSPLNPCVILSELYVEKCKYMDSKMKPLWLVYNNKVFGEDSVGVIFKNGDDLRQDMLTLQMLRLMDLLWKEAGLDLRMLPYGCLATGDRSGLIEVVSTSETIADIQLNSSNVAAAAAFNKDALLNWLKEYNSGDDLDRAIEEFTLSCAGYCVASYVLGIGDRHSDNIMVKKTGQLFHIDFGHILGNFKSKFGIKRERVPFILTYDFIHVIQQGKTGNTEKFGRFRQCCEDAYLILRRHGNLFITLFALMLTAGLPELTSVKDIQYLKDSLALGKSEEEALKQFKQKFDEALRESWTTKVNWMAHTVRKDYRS

Row | SMILES | solubility thermodynamic [1] [µg/mL] | IC50 ([2]; read-out: EPK_PI3Kbeta/IC50) [nM] | IC50 ([2]; read-out: PI3Kbeta/IC50) [nM]
1 | Cc1nc(N2CCN(C)C(=O)C2)ccc1-n1c(=O)n(C)c2cnc3ccc(-c4cnc(N)c(C(F)(F)F)c4)cc3c21 [Example 21.1, 8-(6-Amino-5-trifluoromethyl-pyridin-3-yl)-3-methyl-1-[2-methyl-6-(4-methyl-3-oxo-piperazin-1-yl)-pyridin-3-yl]-1,3-dihydro-imidazo[4,5-c]quinolin-2-one] | 22 (≈ 39.1 µM) | 9 | –
2 | CCOc1ccc(-c2ccc3ncc4c(c3c2)n(-c2cccnc2F)c(=O)n4C)cn1 [Example 6.1, 8-(6-Ethoxy-pyridin-3-yl)-1-(2-fluoro-pyridin-3-yl)-3-methyl-1,3-dihydro-imidazo[4,5-c]quinolin-2-one] | 2 (≈ 4.81 µM) | – | 223
3 | COc1ccc(-c2ccc3ncc4c(c3c2)n(-c2cccnc2C)c(=O)n4C)cc1OC [Example 2.9, 8-(3,4-Dimethoxy-phenyl)-3-methyl-1-(2-methyl-pyridin-3-yl)-1,3-dihydro-imidazo[4,5-c]quinolin-2-one] | 12 (≈ 28.1 µM) | – | 77
4 | Cc1nc(N2CCC2)ccc1-n1c(=O)n(C)c2cnc3ccc(-c4cncc(OC(C)C)c4)cc3c21 [Example 23.9, 1-(6-Azetidin-1-yl-2-methyl-pyridin-3-yl)-8-(5-isopropoxy-pyridin-3-yl)-3-methyl-1,3-dihydro-imidazo[4,5-c]quinolin-2-one] | 35 (≈ 72.8 µM) | 171 | –
5 | CCOc1cc(-c2ccc3ncc4c(c3c2)n(-c2ccc(F)nc2C)c(=O)n4C)cnc1COC [Example 7.5, 8-(5-Ethoxy-6-methoxymethyl-pyridin-3-yl)-1-(6-fluoro-2-methyl-pyridin-3-yl)-3-methyl-1,3-dihydro-imidazo[4,5-c]quinolin-2-one] | 94 (≈ 199 µM) | 152 | –
6 | CNc1cc(-c2ccc3ncc4c(c3c2)n(-c2cccnc2C)c(=O)n4C)cnc1C [Example 2.32, 3-Methyl-8-(6-methyl-5-methylamino-pyridin-3-yl)-1-(2-methyl-pyridin-3-yl)-1,3-dihydro-imidazo[4,5-c]quinolin-2-one] | 127 (≈ 309 µM) | 61 | –
7 | CCOc1ncc(-c2ccc3ncc4c(c3c2)n(-c2cccnc2C)c(=O)n4C)cn1 [Example 2.5, 8-(2-Ethoxy-pyrimidin-5-yl)-3-methyl-1-(2-methyl-pyridin-3-yl)-1,3-dihydro-imidazo[4,5-c]quinolin-2-one] | 48 (≈ 116 µM) | – | 749
8 | CNc1ccc(-c2ccc3ncc4c(c3c2)n(-c2ccc(F)nc2C)c(=O)n4C)cn1 [Example 7.4, 1-(6-Fluoro-2-methyl-pyridin-3-yl)-3-methyl-8-(6-methylamino-pyridin-3-yl)-1,3-dihydro-imidazo[4,5-c]quinolin-2-one] | 11 (≈ 26.5 µM) | – | 263
9 | Cc1ncccc1-n1c(=O)n(C)c2cnc3ccc(-c4ccc(C(N)=O)cc4)cc3c21 [Example 2.3, 4-[3-Methyl-1-(2-methyl-pyridin-3-yl)-2-oxo-2,3-dihydro-1H-imidazo[4,5-c]quinolin-8-yl]-benzamide] | 15 (≈ 36.6 µM) | – | 577
10 | Cc1ncccc1-n1c(=O)n(C)c2cnc3ccc(-c4ccc(CO)nc4)cc3c21 [Example 2.6, 8-(6-Hydroxymethyl-pyridin-3-yl)-3-methyl-1-(2-methyl-pyridin-3-yl)-1,3-dihydro-imidazo[4,5-c]quinolin-2-one] | 125 (≈ 315 µM) | – | 706
11 | Cc1nc(F)ccc1-n1c(=O)n(C)c2cnc3ccc(-c4cnc5c(ccn5C)c4)cc3c21 [Example 7.2, 1-(6-Fluoro-2-methyl-pyridin-3-yl)-3-methyl-8-(1-methyl-1H-pyrrolo[2,3-b]pyridin-5-yl)-1,3-dihydro-imidazo[4,5-c]quinolin-2-one] | 3 (≈ 6.84 µM) | – | 309
12 | Cc1ncccc1-n1c(=O)n(C)c2cnc3ccc(-c4cncc(N5CCC5)c4)cc3c21 [Example 2.29, 8-(5-Azetidin-1-yl-pyridin-3-yl)-3-methyl-1-(2-methyl-pyridin-3-yl)-1,3-dihydro-imidazo[4,5-c]quinolin-2-one] | 8 (≈ 18.9 µM) | 782 | –
13 | Cc1ncccc1-n1c(=O)n(C)c2cnc3ccc(-c4cnc(N)c(C(F)(F)F)c4)cc3c21 [Example 2.11, 8-(6-Amino-5-trifluoromethyl-pyridin-3-yl)-3-methyl-1-(2-methyl-pyridin-3-yl)-1,3-dihydro-imidazo[4,5-c]quinolin-2-one] | 13 (≈ 28.9 µM) | – | 14
14 | CCOc1ccc(-c2ccc3ncc4c(c3c2)n(-c2ccc(N3CCNCC3)nc2OC)c(=O)n4C)cn1 [Example 9.1, 8-(6-Ethoxy-pyridin-3-yl)-1-(2-methoxy-6-piperazin-1-yl-pyridin-3-yl)-3-methyl-1,3-dihydro-imidazo[4,5-c]quinolin-2-one] | 61 (≈ 119 µM) | – | 267
15 | COc1ncccc1-n1c(=O)n(C)c2cnc3ccc(-c4cnc5[nH]ccc5c4)cc3c21 [Example 1.2, 1-(2-Methoxy-pyridin-3-yl)-3-methyl-8-(1H-pyrrolo[2,3-b]pyridin-5-yl)-1,3-dihydro-imidazo[4,5-c]quinolin-2-one] | 3 (≈ 7.1 µM) | – | 115
16 | CCOc1cc(-c2ccc3ncc4c(c3c2)n(-c2ccc(OCCOC)nc2C)c(=O)n4C)cnc1COC [Example 22.1, 8-(5-Ethoxy-6-methoxymethyl-pyridin-3-yl)-1-[6-(2-methoxy-ethoxy)-2-methyl-pyridin-3-yl]-3-methyl-1,3-dihydro-imidazo[4,5-c]quinolin-2-one] | 7 (≈ 13.2 µM) | 429 | –

Continued, values first:

Row | solubility thermodynamic [1] [µg/mL] | IC50 ([2]; read-out: EPK_PI3Kbeta/IC50) [nM] | IC50 ([2]; read-out: PI3Kbeta/IC50) [nM] | SMILES
17 | 57 (≈ 111 µM) | 677 | – | CCNc1cc(-c2ccc3ncc4c(c3c2)n(-c2ccc(N3CC(O)C3)nc2C)c(=O)n4C)cnc1CO [Example 29.2, 8-(5-Ethylamino-6-hydroxymethyl-pyridin-3-yl)-1-[6-(3-hydroxy-azetidin-1-yl)-2-methyl-pyridin-3-yl]-3-methyl-1,3-dihydro-imidazo[4,5-c]quinolin-2-one]
18 | 49 (≈ 89.2 µM) | 37 | – | CNc1ncc(-c2ccc3ncc4c(c3c2)n(-c2ccc(N3CC[C@H](O)C3)nc2C)c(=O)n4C)cc1C(F)(F)F [Example 32.5, 1-[6-((S)-3-Hydroxy-pyrrolidin-1-yl)-2-methyl-pyridin-3-yl]-3-methyl-8-(6-methylamino-5-trifluoromethyl-pyridin-3-yl)-1,3-dihydro-imidazo[4,5-c]quinolin-2-one]
19 | 111 (≈ 220 µM) | 30 | – | Cc1nc(C(C)(C)O)ccc1-n1c(=O)n(C)c2cnc3ccc(-c4cncc(C5(C#N)CCC5)c4)cc3c21 [Example 31.8, 1-(5-{1-[6-(1-Hydroxy-1-methyl-ethyl)-2-methyl-pyridin-3-yl]-3-methyl-2-oxo-2,3-dihydro-1H-imidazo[4,5-c]quinolin-8-yl}-pyridin-3-yl)-cyclobutanecarbonitrile]
20 | 15 (≈ 30 µM) | 59 | – | COc1ncc(-c2ccc3ncc4c(c3c2)n(-c2ccc(N3CC(O)C3)nc2C)c(=O)n4C)c(OC)n1 [Example 29.6, 8-(2,4-Dimethoxy-pyrimidin-5-yl)-1-[6-(3-hydroxy-azetidin-1-yl)-2-methyl-pyridin-3-yl]-3-methyl-1,3-dihydro-imidazo[4,5-c]quinolin-2-one]
21 | 120 (≈ 235 µM) | 216 | – | Cc1nc(N2CC[C@H](O)C2)ccc1-n1c(=O)n(C)c2cnc3ccc(-c4cncc(OC(C)C)c4)cc3c21 [Example 32.8, 1-[6-((S)-3-Hydroxy-pyrrolidin-1-yl)-2-methyl-pyridin-3-yl]-8-(5-isopropoxy-pyridin-3-yl)-3-methyl-1,3-dihydro-imidazo[4,5-c]quinolin-2-one]
22 | 5 (≈ 10.6 µM) | 342 | – | CCOc1ccc(-c2ccc3ncc4c(c3c2)n(-c2ccc(C(C)(C)O)nc2C)c(=O)n4C)cn1 [Example 31.4, 8-(6-Ethoxy-pyridin-3-yl)-1-[6-(1-hydroxy-1-methyl-ethyl)-2-methyl-pyridin-3-yl]-3-methyl-1,3-dihydro-imidazo[4,5-c]quinolin-2-one]
23 | 23 (≈ 40.8 µM) | 134 | – | CCNc1ncc(-c2ccc3ncc4c(c3c2)n(-c2ccc(N3CC[C@@H](O)C3)nc2C)c(=O)n4C)cc1C(F)(F)F [Example 34.2, 8-(6-Ethylamino-5-trifluoromethyl-pyridin-3-yl)-1-[6-((R)-3-hydroxy-pyrrolidin-1-yl)-2-methyl-pyridin-3-yl]-3-methyl-1,3-dihydro-imidazo[4,5-c]quinolin-2-one]
24 | 3 (≈ 6.35 µM) | 217 | – | CNc1ncc(-c2ccc3ncc4c(c3c2)n(-c2ccc(C(C)(C)O)nc2C)c(=O)n4C)cc1F [Example 31.1, 8-(5-Fluoro-6-methylamino-pyridin-3-yl)-1-[6-(1-hydroxy-1-methyl-ethyl)-2-methyl-pyridin-3-yl]-3-methyl-1,3-dihydro-imidazo[4,5-c]quinolin-2-one]
25 | 44 (≈ 82.2 µM) | 69 | – | CNc1ncc(-c2ccc3ncc4c(c3c2)n(-c2ccc(N3CC(O)C3)nc2C)c(=O)n4C)cc1C(F)(F)F [Example 29.4, 1-[6-(3-Hydroxy-azetidin-1-yl)-2-methyl-pyridin-3-yl]-3-methyl-8-(6-methylamino-5-trifluoromethyl-pyridin-3-yl)-1,3-dihydro-imidazo[4,5-c]quinolin-2-one]
26 | 7 (≈ 14 µM) | 1070 | – | CNc1ncc(-c2ccc3ncc4c(c3c2)n(-c2ccc(N3CC[C@H](O)C3)nc2C)c(=O)n4C)cc1F [Example 32.2, 8-(5-Fluoro-6-methylamino-pyridin-3-yl)-1-[6-((S)-3-hydroxy-pyrrolidin-1-yl)-2-methyl-pyridin-3-yl]-3-methyl-1,3-dihydro-imidazo[4,5-c]quinolin-2-one]
